Values joined by “and” are separate entries in the source; they are usually repeats but may differ in a detail not shown here. Identical values can stand only once.
Target: T1, Interstitial collagenase [100-268] (Homo sapiens, UniProt P03956)
T1 construct: 100-268
T1 sequence (P03956 whole entry): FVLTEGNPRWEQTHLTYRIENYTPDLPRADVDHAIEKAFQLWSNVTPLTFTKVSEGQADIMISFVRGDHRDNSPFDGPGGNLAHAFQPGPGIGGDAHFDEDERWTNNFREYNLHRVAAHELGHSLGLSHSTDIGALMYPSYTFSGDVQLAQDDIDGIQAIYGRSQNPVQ
Experiment: cd-MMP-1 Activity Assay
Settings: pH 7.5
Protocol: The activity of cd-MMP-1 was measured using a fluorescence-based assay. It was performed in white 96-well half area microplate (Greiner) in a final volume of 100 μL. […] The reaction was initiated by the addition of 50 μl of quenched fluorogenic peptide substrate: Dnp-Pro-beta-cyclohexyl-Ala-Gly-Cys(Me)-His-Ala-Lys(Nma)-NH2 (final concentration 5 μM). The cd-MMP-1 activity was determined in an Synergy™ 2 Multi-Mode Microplate Reader(BioTek) at an excitation wavelength of 360 nm and an emission wavelength of 460 nm.

IC50 | SMILES
10 nM | CNC(=O)C(CCc1ccccc1)NC(=O)C(CC(=O)NO)CC(C)C (stereo unspecified)
1350 nM and 3920 nM | O=c1c(O)c(-c2ccc(O)cc2)oc2cc(O)cc(O)c12
13 nM | COc1ccc(S(=O)(=O)N2CC(C)(C)CN(S(=O)(=O)c3ccc(OC)cc3)C2C(=O)NO)cc1 [1,3-BIS-(4-METHOXY-BENZENESULFONYL)-5,5-DIMETHYL-HEXAHYDRO-PYRIMIDINE-2-CARBOXYLIC ACID HYDROXYAMIDE]
4850 nM | O=c1c(O)c(-c2ccc(O)cc2O)oc2cc(O)cc(O)c12 [2-(2,4-dihydroxyphenyl)-3,5,7-trihydroxychromen-4-one]

SMILES | IC50
O=c1c(O)c(-c2cc(O)c(O)c(O)c2)oc2cc(O)cc(O)c12 | 2920 nM
O=c1cc(-c2ccc(O)c(O)c2)oc2cc(O)cc(O)c12 [2-(3,4-dihydroxyphenyl)-5,7-dihydroxy-4H-chromen-4-one] | 3030 nM
